Test results taken from the supplement of paper PMC11061612.

How the values were obtained:
Assay in all cases: combination Emax (second highest fraction inhibited in the dose matrix, 72 h); higher = more inhibition; extreme values may be limits of the assay
KS-1 (Glioblastoma) = system: KS-1 (Glioblastoma)
In short: (§1)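 Bliss excess equals the observed combination effect minus the expected value EA + EB − EA·EB, where EA and EB are the effects of each agent alone. Combination Emax is the second-highest inhibition within the matrix. Inhibition was scaled from CellTiter-Glo 2.0 luminescence, with 0 set by vehicle wells and 1 by blank wells, after 72 hours of two-drug dosing of cells plated in 1536-well plates.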

[1] = system: ESS-1 (Other Solid Carcinomas)
In short: as §1

[2] = system: SW1710 (Bladder Carcinoma)
In short: as §1

MPP-89 (Mesothelioma) = system: MPP-89 (Mesothelioma)
In short: as §1

[3] = system: TGBC1TKB (Biliary Tract Carcinoma)
In short: as §1

[4] = system: WSU-NHL (B-Cell Non-Hodgkin's Lymphoma)
In short: as §1

[5] = system: KYAE-1 (Esophageal Adenocarcinoma)
In short: as §1

[6] = system: LNZTA3WT4 (Low Grade Glioma)
In short: as §1

[7] = system: OVCAR-5 (Ovarian Carcinoma)
In short: as §1

[8] = system: SAS (Oral Cavity Carcinoma)
In short: as §1

[9] = system: BFTC-909 (Kidney Carcinoma)
In short: as §1

[10] = system: HuH-7 (Hepatocellular Carcinoma)
In short: as §1

[11] = system: Detroit562 (Head and Neck Carcinoma)
In short: as §1

NCI-H2052 (Mesothelioma) = system: NCI-H2052 (Mesothelioma)
In short: as §1

[12] = system: NUGC-4 (Gastric Carcinoma)
In short: as §1

[13] = system: NCI-H209 (Small Cell Lung Carcinoma)
In short: as §1

[14] = system: Hs-746T (Gastric Carcinoma)
In short: as §1

[15] = system: L-428 (Hodgkin's Lymphoma)
In short: as §1

[16] = system: SW1573 (Lung Adenocarcinoma)
In short: as §1

[17] = system: LS-123 (Colorectal Carcinoma)
In short: as §1

| SMILES | combination Emax (KS-1 (Glioblastoma)) | combination Emax [1] | combination Emax [2] | combination Emax (MPP-89 (Mesothelioma)) | combination Emax [3] | combination Emax [4] | combination Emax [5] | combination Emax [6] | combination Emax [7] | combination Emax [8] | combination Emax [9] | combination Emax [10] | combination Emax [11] | combination Emax (NCI-H2052 (Mesothelioma)) | combination Emax [12] | combination Emax [13] | combination Emax [14] | combination Emax [15] | combination Emax [16] | combination Emax [17] |
| --- | --- | --- | --- | --- | --- | --- | --- | --- | --- | --- | --- | --- | --- | --- | --- | --- | --- | --- | --- | --- |
| CN(CCO)CC[C@H](CSc1ccccc1)Nc1ccc(S(=O)(=O)NC(=O)c2ccc(N3CCC([C@@H](O)c4ccccc4-c4ccc(Cl)cc4)CC3)cc2)cc1S(=O)(=O)C(F)(F)F [AZD4320] + CC(=O)O[C@H]1C(=O)[C@@]2(C)[C@H]([C@H](OC(=O)c3ccccc3)[C@]3(O)C[C@H](OC(=O)[C@H](O)[C@@H](NC(=O)c4ccccc4)c4ccccc4)C(C)=C1C3(C)C)[C@]1(OC(C)=O)CO[C@@H]1C[C@@H]2O [Paclitaxel] (first compound max 1 µM, 7x7, partner max 3 µM) | 0.937 | 1 | 0.98 | 0.983 | 0.894 | 1 | 0.587 | 0.967 | 0.973 | 0.971 | – | – | – | – | – | – | – | – | – | – |
| CN(CCO)CC[C@H](CSc1ccccc1)Nc1ccc(S(=O)(=O)NC(=O)c2ccc(N3CCC([C@@H](O)c4ccccc4-c4ccc(Cl)cc4)CC3)cc2)cc1S(=O)(=O)C(F)(F)F [AZD4320] + CCN(CCO)CCCOc1ccc2c(Nc3cc(CC(=O)Nc4cccc(F)c4)[nH]n3)ncnc2c1 [AZD2811] (first compound max 1 µM, 7x7, partner max 1 µM) | 0.464 | 0.923 | 0.154 | 0.526 | 0.424 | 0.785 | 0.496 | 0.122 | – | 0.105 | 0.514 | 0.219 | 0.825 | 0.128 | 0.215 | 1 | 0.487 | 0.847 | 0.62 | – |
| CN(CCO)CC[C@H](CSc1ccccc1)Nc1ccc(S(=O)(=O)NC(=O)c2ccc(N3CCC([C@@H](O)c4ccccc4-c4ccc(Cl)cc4)CC3)cc2)cc1S(=O)(=O)C(F)(F)F [AZD4320] + C[C@@H]1COCCN1C2=NC(=NC(=C2)C3(CC3)[S@](=N)(=O)C)C4=C5C=CNC5=NC=C4 [AZD6738] (first compound max 1 µM, 7x7, partner max 10 µM) | 0.68 | 0.992 | 0.705 | 0.794 | 0.666 | 0.968 | 0.51 | 0.804 | 0.842 | 0.902 | 0.997 | 0.725 | 0.905 | 0.439 | 0.739 | 1 | 0.782 | 0.956 | 0.555 | – |
| CN(CCO)CC[C@H](CSc1ccccc1)Nc1ccc(S(=O)(=O)NC(=O)c2ccc(N3CCC([C@@H](O)c4ccccc4-c4ccc(Cl)cc4)CC3)cc2)cc1S(=O)(=O)C(F)(F)F [AZD4320] + Cc1cc2ncnn2cc1Nc1ncc2c(n1)n(C1CCOCC1)c(=O)n2C [AZD7648] (first compound max 1 µM, 7x7, partner max 10 µM) | 0.319 | 0.502 | 0.131 | 0.281 | 0.577 | 0.86 | 0.279 | 0.132 | 0.17 | 0.118 | 0.246 | 0.279 | 0.22 | 0.245 | 0.329 | 1 | 0.347 | 0.844 | 0.104 | – |
| CN(CCO)CC[C@H](CSc1ccccc1)Nc1ccc(S(=O)(=O)NC(=O)c2ccc(N3CCC([C@@H](O)c4ccccc4-c4ccc(Cl)cc4)CC3)cc2)cc1S(=O)(=O)C(F)(F)F [AZD4320] + Nc1ccn([C@@H]2O[C@H](CO)[C@@H](O)C2(F)F)c(=O)n1 [Gemcitabine] (first compound max 1 µM, 7x7, partner max 0.3 µM) | 0.304 | 0.998 | 0.51 | 0.78 | 0.408 | 0.995 | 0.32 | 0.608 | 0.633 | 0.983 | – | – | – | – | – | – | – | – | – | – |
| COc1nnc2ccc(N3CCC(c4ccc(OCCN5CCN(C)C(=O)[C@H]5C)cc4)CC3)nn12 [AZD5153] + CN(CC[C@H](CSC1=CC=CC=C1)NC2=C(C=C(C=C2)S(=O)(=O)NC(=O)C3=CC=C(C=C3)N4CCC(CC4)[C@H](C5=CC=CC=C5C6=CC=C(C=C6)Cl)O)S(=O)(=O)C(F)(F)F)CCO [AZD4320] (first compound max 1 µM, 7x7, partner max 1 µM) | – | – | – | – | – | – | – | – | – | – | 0.71 | 0.786 | 0.942 | 0.189 | 0.634 | 1 | 0.557 | 0.943 | 0.61 | – |
| Cc1cc2ncnn2cc1Nc1ncc2c(n1)n(C1CCOCC1)c(=O)n2C [AZD7648] + C=CCn1c(=O)c2cnc(Nc3ccc(N4CCN(C)CC4)cc3)nc2n1-c1cccc(C(C)(C)O)n1 [AZD1775] (first compound max 10 µM, partner max 1 µM) | 0.425 | 0.974 | 0.408 | 0.559 | 0.335 | 1 | 0.574 | 0.717 | 0.412 | 0.734 | 0.619 | 0.252 | 0.704 | 0.512 | 0.359 | 0.743 | 0.652 | 0.884 | 0.328 | 0.641 |
| Cc1cc2ncnn2cc1Nc1ncc2c(n1)n(C1CCOCC1)c(=O)n2C [AZD7648] + CCN(CCO)CCCOc1ccc2c(Nc3cc(CC(=O)Nc4cccc(F)c4)[nH]n3)ncnc2c1 [AZD2811] (first compound max 10 µM, 7x7, partner max 1 µM) | 0.4 | 0.665 | 0.202 | 0.258 | 0.313 | 0.976 | 0.207 | 0.266 | 0.262 | 0.255 | 0.384 | 0.23 | 0.829 | 0.382 | 0.281 | 0.596 | 0.386 | 0.347 | 0.287 | 0.309 |
| Cc1cc2ncnn2cc1Nc1ncc2c(n1)n(C1CCOCC1)c(=O)n2C [AZD7648] + CN(C)CCCOc1ccc(-c2ccc3ncc4c(c3c2)n(C2CCOCC2)c(=O)n4C)cn1 [AZD0156] (first compound max 10 µM, 7x7, partner max 1 µM) | 0.245 | 0.481 | 0.217 | 0.302 | 0.398 | 0.498 | 0.121 | 0.276 | 0.287 | 0.307 | 0.338 | 0.201 | 0.419 | 0.428 | 0.216 | 0.237 | 0.36 | 0.37 | 0.164 | 0.34 |
| CC(=O)c1c(C)c2cnc(Nc3ccc(N4CCNCC4)cn3)nc2n(C2CCCC2)c1=O [Palbociclib] + CN(CC[C@H](CSC1=CC=CC=C1)NC2=C(C=C(C=C2)S(=O)(=O)NC(=O)C3=CC=C(C=C3)N4CCC(CC4)[C@H](C5=CC=CC=C5C6=CC=C(C=C6)Cl)O)S(=O)(=O)C(F)(F)F)CCO [AZD4320] (first compound max 10 µM, 7x7, partner max 1 µM) | – | – | – | – | – | – | – | – | – | – | 0.55 | 0.309 | 0.633 | 0.296 | 0.411 | 1 | 0.408 | 0.866 | 0.255 | – |
| N#Cc1cnc(Nc2cc(NC[C@H]3CNCCO3)c(C(F)(F)F)cn2)cn1 [SRA737] + C=CCn1c(=O)c2cnc(Nc3ccc(N4CCN(C)CC4)cc3)nc2n1-c1cccc(C(C)(C)O)n1 [AZD1775] (first compound max 10 µM, partner max 1 µM) | 0.499 | 1 | 0.644 | 0.661 | 0.271 | 0.989 | 0.114 | 0.91 | 0.762 | 0.824 | – | – | – | – | – | – | – | – | – | 0.722 |
| N#Cc1cnc(Nc2cc(NC[C@H]3CNCCO3)c(C(F)(F)F)cn2)cn1 [SRA737] + CCc1c2c(nc3ccc(O)cc13)-c1cc3c(c(=O)n1C2)COC(=O)[C@]3(O)CC [SN-38] (first compound max 10 µM, 7x7, partner max 0.3 µM) | 0.458 | 1 | 0.676 | 0.73 | 0.367 | 0.994 | 0.313 | 0.84 | 0.784 | 1 | – | – | – | – | – | – | – | – | – | 0.773 |
| N#Cc1cnc(Nc2cc(NC[C@H]3CNCCO3)c(C(F)(F)F)cn2)cn1 [SRA737] + Nc1ccn([C@@H]2O[C@H](CO)[C@@H](O)C2(F)F)c(=O)n1 [Gemcitabine] (first compound max 10 µM, 7x7, partner max 0.3 µM) | 0.5 | 1 | 0.676 | 0.656 | 0.457 | 0.993 | 0.19 | 0.882 | 0.685 | 0.956 | – | – | – | – | – | – | – | – | – | 0.759 |
| C[C@@H](c1ccc2nccn2c1)n1nnc2ncc(-c3cnn(C)c3)nc21 [Savolitinib] + CN(CC[C@H](CSC1=CC=CC=C1)NC2=C(C=C(C=C2)S(=O)(=O)NC(=O)C3=CC=C(C=C3)N4CCC(CC4)[C@H](C5=CC=CC=C5C6=CC=C(C=C6)Cl)O)S(=O)(=O)C(F)(F)F)CCO [AZD4320] (first compound max 1 µM, 7x7, partner max 1 µM) | – | – | – | – | – | – | – | – | – | – | 0.29 | 0.265 | 0.237 | 0.225 | 0.262 | 1 | 0.753 | 0.773 | 0.239 | – |
